This is an account of results in article PMC5539077, “Functional Characterization of a Missing Branch Component in Haematococcus pluvialis for Control of Algal Carotenoid Biosynthesis” (Frontiers in Plant Science, 2017).

Assay [1] addresses T1, HpLCYE (Haematococcus lacustris, UniProt A0A0K1HSD1).
T1 construct: full ORF, 575 aa, codon-optimised, expressed from pACCRT-EIB plasmid in carotenoid-accumulating E. coli DH5alpha; no tag told
T1 sequence (A0A0K1HSD1 1-575): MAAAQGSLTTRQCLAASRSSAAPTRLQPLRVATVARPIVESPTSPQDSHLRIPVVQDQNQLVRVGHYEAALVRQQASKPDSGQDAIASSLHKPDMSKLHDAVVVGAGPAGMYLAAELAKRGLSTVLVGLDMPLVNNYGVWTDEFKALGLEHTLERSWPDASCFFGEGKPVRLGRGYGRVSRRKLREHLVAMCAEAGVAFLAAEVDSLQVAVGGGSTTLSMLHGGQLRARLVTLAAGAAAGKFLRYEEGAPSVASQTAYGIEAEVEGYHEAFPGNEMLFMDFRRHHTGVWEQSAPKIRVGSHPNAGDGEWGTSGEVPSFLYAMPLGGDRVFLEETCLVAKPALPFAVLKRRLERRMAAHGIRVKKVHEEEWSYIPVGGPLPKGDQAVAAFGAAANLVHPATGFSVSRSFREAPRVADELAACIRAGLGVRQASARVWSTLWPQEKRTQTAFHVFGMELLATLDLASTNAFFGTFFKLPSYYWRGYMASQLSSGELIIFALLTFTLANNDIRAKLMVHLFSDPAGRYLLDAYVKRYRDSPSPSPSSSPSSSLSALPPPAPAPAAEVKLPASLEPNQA
Kind of assay: E. coli complementation, UPLC product profile. As to conditions: 30 then 25 °C. It is filed as cell-based.

For assay [2], the target named is T2, HpLCYB (Haematococcus lacustris, UniProt A0A1S6KDX2).
T2 construct: full ORF, 568 aa, expressed from pACCRT-EIB plasmid in carotenoid-accumulating E. coli DH5alpha; no tag told
T2 sequence (A0A1S6KDX2 1-568): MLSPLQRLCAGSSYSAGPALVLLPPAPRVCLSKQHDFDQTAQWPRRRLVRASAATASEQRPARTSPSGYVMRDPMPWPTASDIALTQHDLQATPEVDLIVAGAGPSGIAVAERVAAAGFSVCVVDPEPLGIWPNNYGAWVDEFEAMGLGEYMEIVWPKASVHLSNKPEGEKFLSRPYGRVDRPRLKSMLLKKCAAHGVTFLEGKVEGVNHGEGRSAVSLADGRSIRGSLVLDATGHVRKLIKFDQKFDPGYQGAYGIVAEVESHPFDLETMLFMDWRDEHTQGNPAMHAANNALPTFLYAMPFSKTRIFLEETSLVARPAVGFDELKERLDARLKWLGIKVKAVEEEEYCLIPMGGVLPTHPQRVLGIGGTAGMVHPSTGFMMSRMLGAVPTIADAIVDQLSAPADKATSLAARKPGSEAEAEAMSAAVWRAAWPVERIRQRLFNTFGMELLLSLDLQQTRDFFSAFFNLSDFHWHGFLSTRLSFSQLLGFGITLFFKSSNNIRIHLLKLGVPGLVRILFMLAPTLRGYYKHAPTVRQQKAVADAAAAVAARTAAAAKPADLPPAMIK
Kind of assay: E. coli complementation, UPLC product profile. It is filed as cell-based. As to conditions: lycopene-accumulating E. coli DH5alpha (pACCRT-EIB-B), 30 then 25 °C; product beta-carotene.

Assay [3] addresses HpLCYB (purified) (Haematococcus lacustris, UniProt A0A1S6KDX2). Kind of assay: in vitro cyclase assay, UPLC. The format is biochemical. As to conditions: 50 mM gamma-carotene as printed, 0.1 M Tris-HCl pH 7.0, 10% glycerol, 5 mM DTT, 1 mM EDTA, 30 °C, 1 h; product beta-carotene.

Turning to `CC(C)=CCC/C(C)=C/C=C/C(C)=C/C=C/C(C)=C/C=C/C=C(C)/C=C/C=C(C)/C=C/C=C(\C)CCC=C(C)C` [lycopene], the “E. coli complementation, UPLC product profile” value was “HpLCYE cyclized only one end of lycopene to synthesize δ-carotene” in assay [1] (lycopene-accumulating E. coli DH5alpha (pACCRT-EIB-E), product delta-carotene) and “HpLCYB could cyclize both ends of lycopene to form β-carotene” in assay [2].
On to `CC(C)=CCC/C(C)=C/C=C/C(C)=C/C=C/C(C)=C/C=C/C=C(C)/C=C/C=C(\C)CC/C=C(\C)CCC=C(C)C` [neurosporene], for which the “E. coli complementation, UPLC product profile” value in assay [1] (neurosporene-accumulating E. coli DH5alpha (pACCRT-EIBneurE), product alpha-zeacarotene) was “neurosporene produced by pACCRT-EIBneur was probably transformed into α-, and β-zeacarotene, respectively”.
In the case of `CC(C)=CCC/C(C)=C/C=C/C(C)=C/C=C/C(C)=C/C=C/C=C(C)/C=C/C=C(C)/C=C/C1=C(C)CCCC1(C)C` [γ-carotene], the “in vitro cyclase assay, UPLC” value in assay [3] was “HpLCYB further cyclized γ-carotene to form β-carotene”.
